Read-outs that look alike come from different tables or passages of the source.
Columns and labels:
Experiment in all cases: In vitro competitive activity-based protein profiling (gel-based, FP-Rh or HT-01 probe)
Type in all cases: biochemical
MAGL = molecular target: T1, MAGL (Mus musculus, UniProt O35678); conditions: for inhibition at 1 µM: 1 μM inhibitor; for inhibition at 10 µM: 10 μM inhibitor; for IC50: mouse brain membrane fraction or cell lysates, 30 min preincubation at 37° C., read-out: Mouse (IC50 value, nM) MAGL
T1 construct: Proteomes (mouse brain membrane fraction or cell lysates); from tissue; host or cells: mouse brain membrane fraction (or cell lysates, not specified)
T1 sequence (O35678 1-303): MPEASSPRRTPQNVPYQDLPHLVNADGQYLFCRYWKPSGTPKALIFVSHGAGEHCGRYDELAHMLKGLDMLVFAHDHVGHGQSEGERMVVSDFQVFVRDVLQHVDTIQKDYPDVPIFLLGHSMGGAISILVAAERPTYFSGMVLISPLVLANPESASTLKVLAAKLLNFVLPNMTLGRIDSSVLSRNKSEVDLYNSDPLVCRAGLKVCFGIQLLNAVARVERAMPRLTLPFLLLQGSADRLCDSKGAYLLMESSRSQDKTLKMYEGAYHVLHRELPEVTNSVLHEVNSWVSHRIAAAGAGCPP
Summary of the method: (§1)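 Gel-based read-out: fluorescent band intensity after SDS-PAGE reflected remaining hydrolase activity. Inhibitors were preincubated 30 min at 37° C with 1.0 mg/mL mouse brain membrane or lysate proteome before a further 30 min at 37° C with FP-Rh or HT-01 probe.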

PLA2G7 = molecular target: T2, PLA2G7 (Mus musculus, UniProt Q60963); conditions: for inhibition at 1 µM: 1 μM inhibitor, read-out: % Inhibition at 1 μM, D = PLA2G7; for inhibition at 10 µM: 10 μM inhibitor, read-out: % Inhibition at 10 μM, D = PLA2G7; for IC50: mouse brain membrane fraction or cell lysates, 30 min preincubation at 37° C.
T2 construct: Proteomes (mouse brain membrane fraction or cell lysates); from tissue; host or cells: mouse brain membrane fraction (or cell lysates, not specified)
T2 sequence (Q60963 22-440): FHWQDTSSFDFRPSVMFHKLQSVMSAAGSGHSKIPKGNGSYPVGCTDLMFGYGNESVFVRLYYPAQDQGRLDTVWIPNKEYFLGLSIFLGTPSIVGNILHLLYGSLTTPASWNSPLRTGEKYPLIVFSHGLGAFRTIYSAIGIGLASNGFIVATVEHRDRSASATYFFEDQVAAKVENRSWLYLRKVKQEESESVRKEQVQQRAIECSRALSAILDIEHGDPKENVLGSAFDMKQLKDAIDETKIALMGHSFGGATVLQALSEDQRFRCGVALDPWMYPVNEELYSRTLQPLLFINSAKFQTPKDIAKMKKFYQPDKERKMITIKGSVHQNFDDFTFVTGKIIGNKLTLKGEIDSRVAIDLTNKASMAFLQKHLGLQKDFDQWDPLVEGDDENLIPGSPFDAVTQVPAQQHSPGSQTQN
Summary of the method: as §1

ABHD6 = molecular target: T3, ABHD6 (Mus musculus, UniProt Q8R2Y0); conditions: for inhibition at 1 µM: 1 μM inhibitor, read-out: % Inhibition at 1 μM, C = ABHD6; for inhibition at 10 µM: 10 μM inhibitor, read-out: % Inhibition at 10 μM, C = ABHD6; for IC50: mouse brain membrane fraction or cell lysates, 30 min preincubation at 37° C., read-out: Mouse (IC50 value, nM) ABHD6
T3 construct: Proteomes (mouse brain membrane fraction or cell lysates); from tissue; host or cells: mouse brain membrane fraction (or cell lysates, not specified)
T3 sequence (Q8R2Y0 1-336): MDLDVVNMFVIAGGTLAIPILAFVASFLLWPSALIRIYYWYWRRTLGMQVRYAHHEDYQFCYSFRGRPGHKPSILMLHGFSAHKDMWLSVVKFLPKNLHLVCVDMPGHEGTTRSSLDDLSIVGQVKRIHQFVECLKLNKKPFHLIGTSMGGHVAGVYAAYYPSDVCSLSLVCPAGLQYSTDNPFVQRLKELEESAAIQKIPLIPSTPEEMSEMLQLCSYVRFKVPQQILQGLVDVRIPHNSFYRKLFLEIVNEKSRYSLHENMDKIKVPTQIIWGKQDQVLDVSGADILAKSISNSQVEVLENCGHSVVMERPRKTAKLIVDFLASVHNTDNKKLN
Summary of the method: as §1

FAAH = molecular target: T4, FAAH (Mus musculus, UniProt O08914); conditions: for inhibition at 1 µM: 1 μM inhibitor, read-out: % Inhibition at 1 μM, B = FAAH; for inhibition at 10 µM: 10 μM inhibitor, read-out: % Inhibition at 10 μM, B = FAAH; for IC50: mouse brain membrane fraction or cell lysates, 30 min preincubation at 37° C., read-out: Mouse (IC50 value, nM) FAAH
T4 construct: Proteomes (mouse brain membrane fraction or cell lysates); from tissue; host or cells: mouse brain membrane fraction (or cell lysates, not specified)
T4 sequence (O08914 1-579): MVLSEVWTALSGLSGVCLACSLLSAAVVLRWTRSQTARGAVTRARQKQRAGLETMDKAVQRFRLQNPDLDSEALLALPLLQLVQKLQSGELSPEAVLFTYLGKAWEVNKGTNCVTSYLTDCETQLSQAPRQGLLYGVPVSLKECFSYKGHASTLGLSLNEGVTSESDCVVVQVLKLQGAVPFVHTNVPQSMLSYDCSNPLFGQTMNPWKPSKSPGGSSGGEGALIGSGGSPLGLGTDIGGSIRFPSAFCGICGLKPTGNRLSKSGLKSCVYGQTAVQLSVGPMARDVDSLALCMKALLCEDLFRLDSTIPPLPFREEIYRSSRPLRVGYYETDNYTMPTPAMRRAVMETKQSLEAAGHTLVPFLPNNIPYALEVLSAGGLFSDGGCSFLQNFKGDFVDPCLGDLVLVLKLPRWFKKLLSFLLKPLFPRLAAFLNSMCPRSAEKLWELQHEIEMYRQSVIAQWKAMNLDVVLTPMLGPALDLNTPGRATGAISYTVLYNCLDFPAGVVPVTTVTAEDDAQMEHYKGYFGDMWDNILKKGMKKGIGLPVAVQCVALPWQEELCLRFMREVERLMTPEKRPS
Summary of the method: as §1

Structure (SMILES)	inhibition at 1 µM (MAGL)	inhibition at 10 µM (MAGL)	inhibition at 1 µM (PLA2G7)	inhibition at 10 µM (PLA2G7)	inhibition at 1 µM (ABHD6)	inhibition at 10 µM (ABHD6)	inhibition at 1 µM (FAAH)	inhibition at 10 µM (FAAH)	IC50 (MAGL)	IC50 (PLA2G7)	IC50 (ABHD6)	IC50 (FAAH)	inhibition at 1 µM (MAGL; gel-based competitive ABPP)	inhibition at 1 µM (PLA2G7; gel-based competitive ABPP)	inhibition at 1 µM (ABHD6; gel-based competitive ABPP)	inhibition at 1 µM (FAAH; gel-based competitive ABPP)
CC(=O)N1CCN(C(=O)n2cc(C(F)(F)F)cn2)CC1 [Example 149, 1-(4-(4-(Trifluoromethyl)-1H-pyrazole-1-carbonyl)piperazin-1-yl)ethanone]	< 25%	25 to 75%	> 75%	> 75%	< 25%	25 to 75%	< 25%	< 25%	–	–	–	–	–	–	–	–
CC(=O)N1CCCN(C(=O)n2cc(C#N)cn2)CC1 [Example 177, 1-(4-Acetyl-1,4-diazepane-1-carbonyl)-1H-pyrazole-4-carbonitrile]	< 25%	< 25%	< 25%	> 75%	< 25%	> 75%	< 25%	> 75%	–	–	–	–	–	–	–	–
N#Cc1cnn(C(=O)N2CCN(Cc3ccc4ccccc4c3)CC2)c1 [Example 12, 1-(4-(Naphthalen-2-ylmethyl)piperazine-1-carbonyl)-1H-pyrazole-4-carbonitrile]	> 75%	> 75%	> 75%	> 75%	> 75%	> 75%	> 75%	> 75%	–	–	–	–	–	–	–	–
N#Cc1cnn(C(=O)Nc2ccc3ccccc3c2)c1 [Example 42, 4-Cyano-N-(naphthalen-2-yl)-1H-pyrazole-1-carboxamide]	< 25%	> 75%	< 25%	< 25%	< 25%	< 25%	< 25%	< 25%	–	–	–	–	–	–	–	–
CCN(Cc1cccc(Cl)c1)C(=O)n1cc(C(F)(F)F)cn1 [Example 244, N-(3-Chlorobenzyl)-N-ethyl-4-(trifluoromethyl)-1H-pyrazole-1-carboxamide]	25 to 75%	–	< 25%	–	25 to 75%	–	> 75%	–	> 1000 nM	> 1000 nM	> 1000 nM	< 100 nM	–	–	–	–
Cc1cccc(N2CCN(C(=O)n3cc(C(F)(F)F)cn3)CC2)c1 [Example 231, (4-m-Tolylpiperazin-1-yl)(4-(trifluoromethyl)-1H-pyrazol-1-yl)methanone]	> 75%	> 75%	> 75%	> 75%	> 75%	> 75%	> 75%	> 75%	–	–	–	–	–	–	–	–
CS(=O)(=O)N1CCCN(C(=O)n2cc(C(F)(F)F)cn2)CC1 [Example 155, (4-(Methylsulfonyl)-1,4-diazepan-1-yl)(4-(trifluoromethyl)-1H-pyrazol-1-yl)methanone]	< 25%	25 to 75%	> 75%	> 75%	< 25%	> 75%	25 to 75%	> 75%	–	–	–	–	–	–	–	–
O=C(N1CCN(Cc2ccccn2)CC1)n1cc(-c2ccccc2)cn1 [Example 61, (4-Phenyl-1H-pyrazol-1-yl)(4-(pyridin-2-ylmethyl)piperazin-1-yl)methanone]	–	< 25%	> 75%	> 75%	> 75%	> 75%	–	> 75%	–	–	–	–	–	–	–	–
O=C(N1CCN(c2ccc(N3CCCC3)cc2)CC1)n1cc(C(F)(F)F)cn1 [Example 241, (4-(4-(Pyrrolidin-1-yl)phenyl)piperazin-1-yl)(4-(trifluoromethyl)-1H-pyrazol-1-yl)methanone]	> 75%	> 75%	> 75%	> 75%	> 75%	> 75%	> 75%	> 75%	< 100 nM	< 100 nM	< 100 nM	< 100 nM	–	–	–	–
CC(C)(C)OC(=O)N1CCN(C(=O)n2cc(C#N)cn2)CC1 [Example 6, tert-Butyl 4-(4-cyano-1H-pyrazole-1-carbonyl)piperazine-1-carboxylate]	> 75%	> 75%	> 75%	> 75%	> 75%	> 75%	> 75%	> 75%	–	–	–	–	–	–	–	–
Cc1cnn(C(=O)NCc2ccc(OCc3ccccc3)cc2)c1 [Example 293, N-(4-(Benzyloxy)benzyl)-4-methyl-1H-pyrazole-1-carboxamide]	–	–	–	–	–	–	–	–	–	–	–	–	< 25%	< 25%	< 25%	< 25%
O=C(N1CCN(Cc2cccc(Oc3ccccc3)c2)CC1)n1cc(Cl)cn1 [Example 216, (4-Chloro-1H-pyrazol-1-yl)(4-(3-phenoxybenzyl)piperazin-1-yl)methanone]	> 75%	–	< 25%	–	> 75%	–	> 75%	–	< 100 nM	> 1000 nM	< 100 nM	< 100 nM	–	–	–	–
CC(C)(C)OC(=O)N1CCCN(C(=O)n2cc(C#N)cn2)CC1 [Example 27, tert-Butyl 4-(4-cyano-1H-pyrazole-1-carbonyl)-1,4-diazepane-1-carboxylate]	> 75%	> 75%	> 75%	> 75%	> 75%	> 75%	> 75%	> 75%	–	–	–	–	–	–	–	–
O=C(c1cnn(C(=O)N2CCN(Cc3nccs3)CC2)c1)N1CCCCC1 [Example 74, Piperidin-1-yl(1-(4-(thiazol-2-ylmethyl)piperazine-1-carbonyl)-1H-pyrazol-4-yl)methanone]	< 25%	< 25%	> 75%	> 75%	> 75%	> 75%	< 25%	> 75%	–	–	–	–	–	–	–	–
